How the values were obtained:
[1] = target: T1, KDR (VEGFR2) (Homo sapiens, UniProt P35968); experiment: In vitro kinase assay (Z′-LYTE); format: biochemical; details: read-out: % of inhibition of the kinase compared to the control
T1 construct: purchased Invitrogen
Description: (§1) The inhibitory activity of the compounds on several kinases including BRAF, EGFR (ErbB1), EGFR (ErbB1) T790M L858R, FGFR2, KDR (VEGFR2), PDGFRA (PDGFR alpha), SRC and other was evaluated by Invitrogen using the Z′-LYTE® technology. Briefly, the Z′-LYTE® biochemical assay employs a fluorescence-based, coupled-enzyme format and is based on the differential sensitivity of phosphorylated and non-phosphorylated peptides to proteolytic cleavage. The peptide substrate is labeled with two fluorophores—one at each end—that make up a FRET pair. A ratiometric method, which calculates the ratio (the Emission Ratio) of donor emission to acceptor emission after excitation of the donor fluorophore at 400 nm, is used to quantitate reaction progress.
(§2) The compounds are screened in 1% DMSO (final) in the well. For 10 point titrations, 3-fold serial dilutions are conducted from the starting concentration. All Peptide/Kinase Mixtures are diluted to a 2× working concentration in the appropriate Kinase Buffer. All ATP Solutions are diluted to a 4× working concentration in Kinase Buffer (50 mM HEPES pH 7.5, 0.01% BRIJ-35, 10 mM MgCl2, 1 mM EGTA). ATP Km apparent is previously determined using a Z′-LYTE® assay.
(§3) Each compound was incubated at a concentration of 100 nM (excepted to test the activity against ABL and ABL T315I for which the compounds were incubated at a concentration of 10 μM) and the tables B1 to B12 summarize the results obtained showing the inhibitory power of a compound. The inhibitory activity of OR0512 was also investigated using the same assays and the kinases for which activity was inhibited at more than 50% at the concentration of 100 nM of OR0512 are listed in the table B13.

[2] = target: T2, FGFR2 (Homo sapiens, UniProt P21802); experiment: In vitro kinase assay (Z′-LYTE); format: biochemical; details: read-out: % of inhibition of the kinase compared to the control
T2 construct: purchased Invitrogen
Description: as §1, §2, §3

[3] = target: T3, BRAF (Homo sapiens, UniProt P15056); experiment: In vitro kinase assay (Z′-LYTE); format: biochemical; details: compound 100 nM; ATP 100 μM; read-out: % of inhibition of the kinase compared to the control
T3 construct: purchased Invitrogen
T3 sequence (P15056 whole entry): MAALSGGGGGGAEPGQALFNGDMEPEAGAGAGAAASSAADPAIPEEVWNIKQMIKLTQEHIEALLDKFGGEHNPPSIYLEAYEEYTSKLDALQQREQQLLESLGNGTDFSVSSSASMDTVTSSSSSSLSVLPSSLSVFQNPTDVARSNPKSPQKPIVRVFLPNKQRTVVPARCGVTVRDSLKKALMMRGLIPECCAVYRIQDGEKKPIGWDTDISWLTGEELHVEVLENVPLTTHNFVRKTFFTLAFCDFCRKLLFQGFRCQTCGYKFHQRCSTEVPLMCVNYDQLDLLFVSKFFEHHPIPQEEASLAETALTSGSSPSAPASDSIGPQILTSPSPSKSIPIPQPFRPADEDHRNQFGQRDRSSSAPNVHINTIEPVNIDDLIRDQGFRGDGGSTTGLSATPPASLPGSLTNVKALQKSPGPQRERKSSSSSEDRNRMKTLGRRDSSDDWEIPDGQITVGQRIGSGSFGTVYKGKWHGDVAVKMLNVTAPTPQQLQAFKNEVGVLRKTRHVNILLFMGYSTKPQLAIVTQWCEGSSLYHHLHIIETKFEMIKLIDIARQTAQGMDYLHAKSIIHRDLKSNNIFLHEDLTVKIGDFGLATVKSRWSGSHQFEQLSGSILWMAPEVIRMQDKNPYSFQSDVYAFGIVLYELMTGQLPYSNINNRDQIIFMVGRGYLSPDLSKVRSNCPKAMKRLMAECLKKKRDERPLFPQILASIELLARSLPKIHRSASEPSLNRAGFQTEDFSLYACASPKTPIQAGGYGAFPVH
Description: as §1, §2, §3

[4] = target: T4, EGFR (ErbB1) (Homo sapiens, UniProt P00533); experiment: In vitro kinase assay (Z′-LYTE); format: biochemical; details: read-out: % of inhibition of the kinase compared to the control
T4 construct: purchased Invitrogen
T4 sequence (P00533 25-1210): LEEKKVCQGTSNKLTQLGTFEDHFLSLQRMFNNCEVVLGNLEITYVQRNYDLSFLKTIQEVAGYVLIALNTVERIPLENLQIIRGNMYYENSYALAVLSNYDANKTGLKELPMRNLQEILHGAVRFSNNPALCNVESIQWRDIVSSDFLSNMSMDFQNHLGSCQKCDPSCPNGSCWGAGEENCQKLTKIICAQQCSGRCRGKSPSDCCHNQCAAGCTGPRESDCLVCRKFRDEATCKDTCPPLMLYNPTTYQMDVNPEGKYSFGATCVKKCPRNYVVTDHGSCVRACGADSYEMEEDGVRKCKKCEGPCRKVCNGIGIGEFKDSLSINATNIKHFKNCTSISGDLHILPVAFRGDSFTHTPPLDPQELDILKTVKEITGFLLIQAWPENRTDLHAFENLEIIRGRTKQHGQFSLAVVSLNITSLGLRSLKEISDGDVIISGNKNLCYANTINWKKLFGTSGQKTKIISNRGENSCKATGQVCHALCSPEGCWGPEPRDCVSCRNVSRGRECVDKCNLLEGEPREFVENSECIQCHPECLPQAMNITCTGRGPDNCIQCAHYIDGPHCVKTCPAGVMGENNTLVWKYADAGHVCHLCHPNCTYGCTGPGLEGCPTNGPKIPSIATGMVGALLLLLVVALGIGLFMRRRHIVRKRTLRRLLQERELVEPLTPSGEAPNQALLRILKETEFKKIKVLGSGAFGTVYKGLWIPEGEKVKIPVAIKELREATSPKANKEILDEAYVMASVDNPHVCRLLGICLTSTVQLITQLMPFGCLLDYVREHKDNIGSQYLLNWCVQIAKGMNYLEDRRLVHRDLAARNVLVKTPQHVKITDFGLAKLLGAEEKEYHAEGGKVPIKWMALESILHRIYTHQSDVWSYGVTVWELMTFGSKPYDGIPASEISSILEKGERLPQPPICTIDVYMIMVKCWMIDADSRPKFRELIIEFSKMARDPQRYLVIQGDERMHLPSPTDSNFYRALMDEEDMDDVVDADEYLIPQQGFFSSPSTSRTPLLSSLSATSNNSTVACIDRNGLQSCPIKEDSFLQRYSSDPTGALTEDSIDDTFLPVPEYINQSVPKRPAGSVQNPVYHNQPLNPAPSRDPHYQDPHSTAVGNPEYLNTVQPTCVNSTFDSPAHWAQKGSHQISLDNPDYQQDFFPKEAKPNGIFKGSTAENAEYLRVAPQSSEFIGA
Description: as §1, §2, §3

[5] = test system: HUVEC; experiment: In vitro cell proliferation assay (MTT); format: cell-based; details: Homo sapiens, 72 h
Description: (§4) Cancer cell lines (5×10^3 cells per well) or HUVEC (1×10^4 cells per well) or HRMEC (1×10^4 cells per well) were distributed in 96-well plates and incubating in duplicate with escalating concentrations (10 nM to 3 μM) of compounds for 72 hr. Cell proliferation was measured using MTT (3 [4,5-dimethylthiazol-2-yl]-2,5-diphenyltetrazolium bromide).

[6] = test system: HepG2; experiment: In vitro cell proliferation assay (MTT); format: cell-based; details: Homo sapiens, HepG2, 72 h
Description: as §4

[7] = target: T5, FGFR1 (Homo sapiens, UniProt P11362); experiment: In vitro kinase assay (Z′-LYTE); format: biochemical; details: read-out: % of inhibition of the kinase compared to the control
T5 construct: purchased Invitrogen
Description: as §1, §2, §3

[8] = target: T6, ABL T315I (Homo sapiens, UniProt P00519, T315I); experiment: In vitro kinase assay (Z′-LYTE); format: biochemical; details: read-out: % of inhibition of the kinase compared to the control
T6 construct: purchased Invitrogen
Description: as §1, §2, §3

[9] = target: T7, PDGFRB (Homo sapiens, UniProt P09619); experiment: In vitro kinase assay (Z′-LYTE); format: biochemical; details: read-out: % of inhibition of the kinase compared to the control
T7 construct: purchased Invitrogen
Description: as §1, §2, §3

[10] = target: T8, PDGFRA (PDGFR alpha) (Homo sapiens, UniProt P16234); experiment: In vitro kinase assay (Z′-LYTE); format: biochemical; details: read-out: % of inhibition of the kinase compared to the control
T8 construct: purchased Invitrogen
T8 sequence (P16234 24-1089): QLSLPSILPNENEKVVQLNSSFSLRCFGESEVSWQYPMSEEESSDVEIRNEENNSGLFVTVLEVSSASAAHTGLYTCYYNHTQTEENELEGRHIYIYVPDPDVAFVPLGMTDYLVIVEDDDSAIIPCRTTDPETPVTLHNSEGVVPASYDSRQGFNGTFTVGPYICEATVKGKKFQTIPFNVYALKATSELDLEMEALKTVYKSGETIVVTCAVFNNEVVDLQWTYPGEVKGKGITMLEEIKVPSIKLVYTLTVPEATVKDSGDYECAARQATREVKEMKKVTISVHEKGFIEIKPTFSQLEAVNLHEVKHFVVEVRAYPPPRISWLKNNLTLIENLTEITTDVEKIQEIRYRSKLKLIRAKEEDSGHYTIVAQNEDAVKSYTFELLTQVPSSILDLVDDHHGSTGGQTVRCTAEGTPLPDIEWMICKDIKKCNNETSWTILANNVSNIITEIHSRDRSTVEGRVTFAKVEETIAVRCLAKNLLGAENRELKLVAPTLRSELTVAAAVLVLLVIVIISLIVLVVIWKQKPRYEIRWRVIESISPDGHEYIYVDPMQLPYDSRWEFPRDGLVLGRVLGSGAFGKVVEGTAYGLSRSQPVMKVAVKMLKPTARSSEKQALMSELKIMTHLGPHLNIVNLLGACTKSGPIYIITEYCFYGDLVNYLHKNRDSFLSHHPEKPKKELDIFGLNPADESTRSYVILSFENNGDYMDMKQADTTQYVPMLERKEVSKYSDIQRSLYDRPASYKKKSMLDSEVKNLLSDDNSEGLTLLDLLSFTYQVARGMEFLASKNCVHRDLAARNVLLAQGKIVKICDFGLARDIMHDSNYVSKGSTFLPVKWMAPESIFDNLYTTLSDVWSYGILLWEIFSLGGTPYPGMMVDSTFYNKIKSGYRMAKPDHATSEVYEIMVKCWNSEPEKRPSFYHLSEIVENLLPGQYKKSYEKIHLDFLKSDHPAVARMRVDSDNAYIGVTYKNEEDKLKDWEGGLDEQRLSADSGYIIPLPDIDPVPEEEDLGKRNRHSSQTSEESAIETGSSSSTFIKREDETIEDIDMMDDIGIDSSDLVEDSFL
Description: as §1, §2, §3

[11] = target: T9, SRC (Homo sapiens, UniProt P12931); experiment: In vitro kinase assay (Z′-LYTE); format: biochemical; details: read-out: % of inhibition of the kinase compared to the control
T9 construct: purchased Invitrogen
T9 sequence (P12931 whole entry): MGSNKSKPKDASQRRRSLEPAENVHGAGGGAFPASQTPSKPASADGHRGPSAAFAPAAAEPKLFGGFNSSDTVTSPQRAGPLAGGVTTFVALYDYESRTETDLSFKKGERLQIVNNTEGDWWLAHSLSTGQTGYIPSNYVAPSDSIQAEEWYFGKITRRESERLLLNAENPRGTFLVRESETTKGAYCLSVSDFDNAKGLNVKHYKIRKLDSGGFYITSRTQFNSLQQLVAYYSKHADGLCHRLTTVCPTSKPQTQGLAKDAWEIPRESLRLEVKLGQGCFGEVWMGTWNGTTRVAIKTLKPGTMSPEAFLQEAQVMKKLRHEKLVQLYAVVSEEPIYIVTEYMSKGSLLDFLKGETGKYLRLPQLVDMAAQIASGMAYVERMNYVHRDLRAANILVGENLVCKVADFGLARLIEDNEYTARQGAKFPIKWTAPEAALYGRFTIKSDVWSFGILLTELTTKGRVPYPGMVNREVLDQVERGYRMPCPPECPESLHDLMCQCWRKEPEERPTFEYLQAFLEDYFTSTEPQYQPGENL
Description: as §1, §2, §3

[12] = target: T10, ABL (Homo sapiens, UniProt P00519); experiment: In vitro kinase assay (Z′-LYTE); format: biochemical; details: read-out: % of inhibition of the kinase compared to the control
T10 construct: purchased Invitrogen
Description: as §1, §2, §3

[13] = target: T11, EGFR (ErbB1) T790M L858R (Homo sapiens, UniProt P00533, L858R/T790M); experiment: In vitro kinase assay (Z′-LYTE); format: biochemical; details: read-out: % of inhibition of the kinase compared to the control
T11 construct: purchased Invitrogen
T11 sequence (P00533 25-1210 T790M/L858R): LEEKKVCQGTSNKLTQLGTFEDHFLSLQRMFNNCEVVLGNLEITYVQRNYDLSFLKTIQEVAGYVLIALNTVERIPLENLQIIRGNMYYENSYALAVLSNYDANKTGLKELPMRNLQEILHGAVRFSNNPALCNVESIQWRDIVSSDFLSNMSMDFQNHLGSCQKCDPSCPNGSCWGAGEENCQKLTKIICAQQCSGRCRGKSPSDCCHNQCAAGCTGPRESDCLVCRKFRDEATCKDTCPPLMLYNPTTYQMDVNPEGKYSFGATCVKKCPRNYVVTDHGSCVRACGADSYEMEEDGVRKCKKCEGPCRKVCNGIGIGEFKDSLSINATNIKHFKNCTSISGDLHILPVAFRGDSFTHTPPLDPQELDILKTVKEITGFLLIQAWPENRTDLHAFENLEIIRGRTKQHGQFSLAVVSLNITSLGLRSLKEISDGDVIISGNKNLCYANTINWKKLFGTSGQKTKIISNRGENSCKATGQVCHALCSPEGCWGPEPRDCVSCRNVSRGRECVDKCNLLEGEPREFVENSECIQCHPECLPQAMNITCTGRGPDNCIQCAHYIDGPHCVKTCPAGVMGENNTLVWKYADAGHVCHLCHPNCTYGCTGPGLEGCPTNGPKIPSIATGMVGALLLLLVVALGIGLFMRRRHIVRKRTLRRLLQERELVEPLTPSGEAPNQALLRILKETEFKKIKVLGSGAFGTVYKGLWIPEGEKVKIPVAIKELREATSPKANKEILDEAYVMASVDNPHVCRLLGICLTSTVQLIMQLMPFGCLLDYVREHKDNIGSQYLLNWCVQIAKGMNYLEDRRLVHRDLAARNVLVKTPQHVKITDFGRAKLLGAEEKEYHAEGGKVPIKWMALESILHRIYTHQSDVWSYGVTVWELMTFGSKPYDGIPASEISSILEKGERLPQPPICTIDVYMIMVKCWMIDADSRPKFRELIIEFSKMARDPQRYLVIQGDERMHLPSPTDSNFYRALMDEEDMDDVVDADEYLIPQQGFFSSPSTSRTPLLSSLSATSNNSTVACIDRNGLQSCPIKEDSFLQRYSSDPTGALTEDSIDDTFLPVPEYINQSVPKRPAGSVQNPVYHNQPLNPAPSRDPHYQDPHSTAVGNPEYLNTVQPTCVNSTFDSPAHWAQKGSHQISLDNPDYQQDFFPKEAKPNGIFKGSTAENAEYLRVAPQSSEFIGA
Description: as §1, §2, §3

[14] = target: T12, VEGFR1 (Homo sapiens, UniProt P17948); experiment: In vitro kinase assay (Z′-LYTE); format: biochemical; details: read-out: % of inhibition of the kinase compared to the control
T12 construct: purchased Invitrogen
Description: as §1, §2, §3

[15] = test system: BxPC-3; experiment: In vitro cell proliferation assay (MTT); format: cell-based; details: Homo sapiens, BXPC-3, 72 h
Description: as §4

Row | SMILES | inhibition at 0.1 µM [1] [%] | inhibition at 0.1 µM [2] [%] | inhibition at 0.1 µM [3] [%] | inhibition at 0.1 µM [4] [%] | EC50 [6] [µM] | inhibition at 0.1 µM [7] [%] | inhibition at 10 µM [8] [%] | inhibition at 0.1 µM [9] [%] | inhibition at 0.1 µM [10] [%] | inhibition at 0.1 µM [11] [%] | inhibition at 10 µM [12] [%] | inhibition at 0.1 µM [13] [%] | inhibition at 0.1 µM [14] [%] | EC50 [15] [µM] | EC50 [5] [µM]
1 | COC(=O)c1cc2cc(NCc3cc(NC(=O)c4cc[nH]c4)ccc3C)cnc2[nH]1 [OR0975] | < 50 | < 50 | ≥ 50 | < 50 | ≥ 1 | – | – | – | ≥ 50 | – | – | – | – | – | ≥ 1
2 | COC(=O)c1cc2cc(NCc3cc(NC(=O)c4ccc(CN5CCN(C)CC5)c(F)c4)ccc3C)cnc2[nH]1 [OR0864] | ≥ 50 | ≥ 50 | ≥ 50 | ≥ 50 | ≥ 1 | – | – | – | – | – | – | – | – | – | –
3 | COC(=O)c1cc2cc(NCc3cc(NC(=O)Nc4cccnc4)ccc3C)cnc2[nH]1 [OR0896] | < 50 | < 50 | ≥ 50 | ≥ 50 | ≥ 1 | – | – | – | – | – | – | – | – | – | 0.1 to 1
4 | COC(=O)c1cc2cc(NCc3cc(NC(=O)c4cc(N5CCN(C)CC5)cc(C(F)(F)F)c4)ccc3C)cnc2[nH]1 [OR0698] | < 50 | < 50 | < 50 | ≥ 50 | – | – | – | – | < 50 | ≥ 50 | – | < 50 | – | – | –
5 | COC(=O)c1cc2cc(NCc3cc(NC(=O)c4ccc(CN5CCC(N(C)C)C5)c(F)c4)ccc3C)cnc2[nH]1 (centres unmarked) [OR0974] | ≥ 50 | < 50 | ≥ 50 | ≥ 50 | ≥ 1 | – | – | – | – | – | – | – | – | – | ≥ 1

The next lines start with results.

Row | inhibition at 0.1 µM [1] [%] | inhibition at 0.1 µM [2] [%] | inhibition at 0.1 µM [3] [%] | inhibition at 0.1 µM [4] [%] | EC50 [6] [µM] | inhibition at 0.1 µM [7] [%] | inhibition at 10 µM [8] [%] | inhibition at 0.1 µM [9] [%] | inhibition at 0.1 µM [10] [%] | inhibition at 0.1 µM [11] [%] | inhibition at 10 µM [12] [%] | inhibition at 0.1 µM [13] [%] | inhibition at 0.1 µM [14] [%] | EC50 [15] [µM] | SMILES | EC50 [5] [µM]
6 | ≥ 50 | ≥ 50 | < 50 | < 50 | ≥ 1 | – | – | – | – | – | – | – | – | – | COC(=O)c1cc2cc(NCc3cccc(C(=O)Nc4ccc(CN5CCN(C)CC5)c(C(F)(F)F)c4)c3)cnc2[nH]1 [OR0635] | 0.1 to 1
7 | < 50 | < 50 | < 50 | < 50 | – | < 50 | ≥ 50 | < 50 | < 50 | < 50 | ≥ 50 | < 50 | < 50 | – | COC(=O)c1cc2cc(NCc3cc(NC(=O)c4ccc(CN5CCN(C)CC5)c(C(F)(F)F)c4)ccc3Cl)cnc2[nH]1 [OR0621] | –
8 | < 50 | < 50 | < 50 | < 50 | – | < 50 | < 50 | < 50 | ≥ 50 | ≥ 50 | ≥ 50 | < 50 | < 50 | 0.1 to 1 | COC(=O)c1cc2cc(NCc3cc(NC(=O)Nc4cccc(C(F)(F)F)c4)ccc3C)cnc2[nH]1 [OR0603] | –
9 | < 50 | < 50 | < 50 | < 50 | ≥ 1 | – | – | – | < 50 | – | – | – | – | – | COC(=O)c1cc2cc(NC(=O)c3cccc(CNC(=O)c4ccc(CN5CCN(C)CC5)c(C(F)(F)F)c4)c3)cnc2[nH]1 [OR0983] | ≥ 1
10 | < 50 | < 50 | < 50 | < 50 | ≥ 1 | – | – | – | < 50 | – | – | – | – | – | COC(=O)c1cc2cc(NCc3cccc(C(=O)NCc4cccc(C(F)(F)F)c4)c3)cnc2[nH]1 [OR1004] | ≥ 1
11 | < 50 | < 50 | < 50 | < 50 | ≥ 1 | – | – | – | < 50 | – | – | – | – | – | COC(=O)c1cc2cc(NCc3cccc(C(=O)Nc4cccnc4)c3)cnc2[nH]1 [OR0916] | ≥ 1
